Laboratory results published in patent publication US12655185B2, “Peptide inhibitors of interleukin-23 and their use to treat inflammatory diseases” (Protagonist Therapeutics, Inc., priority 2016, dated 2026).
Where two headings read alike, the source gives them in different places. Bridge positions count the residues as written; N and C are the ends. Peptide text beside a SMILES is read from it.

Molecular target: T1, IL-23 binding to IL23R_huFC (human IL-23R) (Homo sapiens, UniProt P29460+Q9NPF7)
T1 sequence (Q9NPF7 20-189): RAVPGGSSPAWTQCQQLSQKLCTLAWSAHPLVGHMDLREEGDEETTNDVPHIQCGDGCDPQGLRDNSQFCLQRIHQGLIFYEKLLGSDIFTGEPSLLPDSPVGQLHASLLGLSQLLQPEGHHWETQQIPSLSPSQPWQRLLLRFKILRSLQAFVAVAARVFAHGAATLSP
T1 sequence (P29460 23-328): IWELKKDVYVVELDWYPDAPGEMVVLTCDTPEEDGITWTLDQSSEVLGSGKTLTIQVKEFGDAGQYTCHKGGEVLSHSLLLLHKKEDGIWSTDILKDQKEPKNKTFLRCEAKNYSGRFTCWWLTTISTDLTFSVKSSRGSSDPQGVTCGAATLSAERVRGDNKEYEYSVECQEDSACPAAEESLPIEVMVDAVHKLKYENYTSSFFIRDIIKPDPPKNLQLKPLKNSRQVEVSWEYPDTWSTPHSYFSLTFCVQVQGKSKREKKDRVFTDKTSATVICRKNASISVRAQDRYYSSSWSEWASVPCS
Experiment: IL23-IL23R Competitive Binding ELISA
Description: Immulon® 4HBX plate was coated with 200 ng/well of IL23R_huFC and incubated overnight at 4° C. […] Serial dilutions of test peptides and IL-23 at a final concentration of 0.9 nM diluted in PBS were added to each well and incubated for 2 hours at room temperature. After the wells were washed, bound IL-23 was detected by incubation with 50 ng/well of goat anti-p40 polyclonal antibodies (R&D Systems #AF309) diluted in PBS for 1 hour at room temperature. The wells were again washed four times with PBST. […] The plate was finally washed as above. Signals were visualized with TMB One Component HRP Membrane Substrate, quenched with 2 M sulfuric acid and read spectrophotometrically at 450 nm.

[1] = inhibition of IL-23/IL-23R binding, IL-23 0.9 nM, class symbols, read-out: IC50 IL23R_huFC

Structure (SMILES) | IC50 [1] [µM] | IC50 [µM]
CC[C@H](C)[C@@H]1NC(=O)[C@H](CCCNC(=N)N)NC(=O)[C@H](C)NC(=O)[C@H](CC(N)=O)NC(=O)[C@H](CCCNC(=N)N)NC(=O)[C@H](CC(=O)O)NC(=O)[C@H](CCC(=O)O)NC(=O)[C@H](CCC(=O)O)NC(=O)[C@H](CC(N)=O)NC(=O)[C@H](CC(C)C)NC(=O)[C@H](CC(N)=O)NC(=O)[C@@H]2CCCN2C(=O)[C@H](CC(N)=O)NC(=O)[C@H](C)NC(=O)[C@H](C)NC(=O)[C@H](C)NC(=O)[C@H](Cc2c[nH]c3ccccc23)NC(=O)[C@H](Cc2ccc(O)cc2)NC(=O)[C@H](Cc2ccccc2)NC(=O)[C@H](CC(C)C)NC(=O)[C@H](CCCNC(=N)N)NC(=O)[C@H](CCC(N)=O)NC(=O)[C@@H](NC(=O)[C@H](Cc2ccccc2)NC(=O)[C@H](CCSC)NC(=O)[C@H](CC(N)=O)NC(=O)[C@H](Cc2ccccc2)NC(C)=O)CSSC[C@@H](C(N)=O)NC(=O)CNC(=O)[C@H](CC(=O)O)NC(=O)[C@H](CCCNC(=N)N)NC(=O)[C@H](Cc2ccccc2)NC(=O)[C@H](CO)NC(=O)[C@H](CC(C)C)NC1=O [Peptide 3] (Ac-FNMFCQRLFYWAAANPNLNEEDRNARILSFRDGC-NH2; disulfide 5-34) | 10 to 100 | –
CC[C@H](C)[C@@H]1NC(=O)CNC(=O)[C@H](C)NC(=O)[C@H](CCC(=O)O)NC(=O)[C@H](C(C)C)NC(=O)[C@H](CCSC)NC(=O)[C@H](CCCNC(=N)N)NC(=O)[C@H](CCCNC(=N)N)NC(=O)[C@H](CC(C)C)NC(=O)[C@@H](NC(=O)[C@H](CCC(N)=O)NC(=O)[C@H](CCSC)NC(=O)[C@H](CC(N)=O)NC(=O)[C@H](Cc2ccccc2)NC(C)=O)CSSC[C@@H](C(N)=O)NC(=O)[C@H](CC(=O)O)NC(=O)[C@H](CC(=O)O)NC(=O)[C@H](Cc2ccccc2)NC(=O)[C@H]([C@@H](C)CC)NC(=O)[C@H](CO)NC(=O)[C@H](CCCNC(=N)N)NC(=O)[C@H]([C@@H](C)CC)NC(=O)[C@H](CCCCN)NC(=O)[C@H](C)NC(=O)[C@H](Cc2c[nH]c3ccccc23)NC(=O)[C@H](CCCNC(=N)N)NC(=O)[C@H](CCC(N)=O)NC(=O)CNC(=O)[C@H](CO)NC(=O)[C@H](CC(N)=O)NC(=O)[C@H](CC(C)C)NC(=O)[C@H](CC(N)=O)NC(=O)[C@@H]2CCCN2C(=O)[C@H](CC(=O)O)NC1=O [Peptide 8] (Ac-FNMQCLRRMVEAGIDPNLNSGQRWAKIRSIFDDC-NH2; disulfide 5-34) | 10 to 100 | –
CC[C@H](C)[C@@H]1NC(=O)[C@H](CCCCN)NC(=O)[C@H](C)NC(=O)[C@H](CC(N)=O)NC(=O)[C@H](CCCNC(=N)N)NC(=O)[C@H](CCC(N)=O)NC(=O)[C@H](CCC(=O)O)NC(=O)[C@H](CCC(=O)O)NC(=O)[C@H](CC(N)=O)NC(=O)[C@H](CC(C)C)NC(=O)[C@H](CC(N)=O)NC(=O)[C@@H]2CCCN2C(=O)[C@H](CC(=O)O)NC(=O)[C@H](C)NC(=O)[C@H](C)NC(=O)[C@H](C)NC(=O)[C@H](CO)NC(=O)[C@H](Cc2ccc(O)cc2)NC(=O)[C@H](Cc2ccccc2)NC(=O)[C@H](C)NC(=O)[C@H](CC(C)C)NC(=O)[C@H](CCC(N)=O)NC(=O)[C@@H](NC(=O)[C@H](Cc2ccccc2)NC(=O)[C@H](CCSC)NC(=O)[C@H](CC(N)=O)NC(=O)[C@H](Cc2ccccc2)NC(C)=O)CSSC[C@@H](C(N)=O)NC(=O)[C@H](CC(C)C)NC(=O)[C@H](CC(=O)O)NC(=O)[C@H](CCCNC(=N)N)NC(=O)[C@H](Cc2ccccc2)NC(=O)[C@H](CO)NC(=O)[C@H](CCCCN)NC1=O [Peptide 9] (Ac-FNMFCQLAFYSAAADPNLNEEQRNAKIKSFRDLC-NH2; disulfide 5-34) | – | 10 to 100
CC[C@H](C)[C@@H]1NC(=O)[C@H](CCCCN)NC(=O)[C@H](C)NC(=O)[C@H](Cc2c[nH]c3ccccc23)NC(=O)[C@H](CCCNC(=N)N)NC(=O)[C@H](CCC(N)=O)NC(=O)[C@H](CCC(=O)O)NC(=O)[C@H](CCC(N)=O)NC(=O)[C@H](CC(N)=O)NC(=O)[C@H](CC(C)C)NC(=O)[C@H](CC(N)=O)NC(=O)[C@@H]2CCCN2C(=O)[C@H](CC(=O)O)NC(=O)[C@H](C(C)C)NC(=O)CNC(=O)[C@H](C)NC(=O)[C@H](CCC(=O)O)NC(=O)[C@H](CO)NC(=O)[C@H](C)NC(=O)[C@H](CCCNC(=N)N)NC(=O)[C@H](CCCNC(=N)N)NC(=O)[C@H](CC(C)C)NC(=O)[C@@H](NC(=O)[C@H](CCC(N)=O)NC(=O)[C@H](CCSC)NC(=O)[C@H](CC(N)=O)NC(=O)[C@H](Cc2ccccc2)NC(C)=O)CSSC[C@@H](C(N)=O)NC(=O)[C@H](CC(=O)O)NC(=O)[C@H](CC(=O)O)NC(=O)[C@H](CCSC)NC(=O)[C@H]([C@@H](C)CC)NC(=O)[C@H](CO)NC(=O)[C@H](CCCCN)NC1=O [Peptide 12] (Ac-FNMQCLRRASEAGVDPNLNQEQRWAKIKSIMDDC-NH2; disulfide 5-34) | 1 to 10 | –
CC[C@H](C)[C@@H]1NC(=O)[C@H](CCCCN)NC(=O)[C@H](C)NC(=O)[C@H](Cc2c[nH]c3ccccc23)NC(=O)[C@H](CCCNC(=N)N)NC(=O)[C@H](CCC(N)=O)NC(=O)[C@H](CCC(=O)O)NC(=O)[C@H](CCC(N)=O)NC(=O)[C@H](CC(N)=O)NC(=O)[C@H](CC(C)C)NC(=O)[C@H](CC(N)=O)NC(=O)[C@@H]2CCCN2C(=O)[C@H](CC(=O)O)NC(=O)[C@H](C(C)C)NC(=O)CNC(=O)[C@H](C)NC(=O)[C@H](CCC(=O)O)NC(=O)[C@H](C)NC(=O)[C@H](CCSC)NC(=O)[C@H](CCCNC(=N)N)NC(=O)[C@H](CCCNC(=N)N)NC(=O)[C@H](CC(C)C)NC(=O)[C@@H](NC(=O)[C@H](CCC(N)=O)NC(=O)[C@H](CCSC)NC(=O)[C@H](CC(N)=O)NC(=O)[C@H](Cc2ccccc2)NC(C)=O)CSSC[C@@H](C(N)=O)NC(=O)[C@H](CC(=O)O)NC(=O)[C@H](CC(=O)O)NC(=O)[C@H](CCSC)NC(=O)[C@H]([C@@H](C)CC)NC(=O)[C@H](CO)NC(=O)[C@H](CCCCN)NC1=O [Peptide 13] (Ac-FNMQCLRRMAEAGVDPNLNQEQRWAKIKSIMDDC-NH2; disulfide 5-34) | < 1 | –
CC[C@H](C)[C@@H]1NC(=O)[C@H](CCCCN)NC(=O)[C@H](C)NC(=O)[C@H](Cc2c[nH]c3ccccc23)NC(=O)[C@H](CCCNC(=N)N)NC(=O)[C@H](CCC(N)=O)NC(=O)[C@H](CCC(=O)O)NC(=O)[C@H](CCC(N)=O)NC(=O)[C@H](CC(N)=O)NC(=O)[C@H](CC(C)C)NC(=O)[C@H](CC(N)=O)NC(=O)[C@H](C)NC(=O)[C@H](CC(=O)O)NC(=O)[C@H](C(C)C)NC(=O)CNC(=O)[C@H](C)NC(=O)[C@H](CCC(=O)O)NC(=O)[C@H](CO)NC(=O)[C@H](CCSC)NC(=O)[C@H](CCCNC(=N)N)NC(=O)[C@H](CCCNC(=N)N)NC(=O)[C@H](CC(C)C)NC(=O)[C@@H](NC(=O)[C@H](CCC(N)=O)NC(=O)[C@H](CCSC)NC(=O)[C@H](CC(N)=O)NC(=O)[C@H](Cc2ccccc2)NC(C)=O)CSSC[C@@H](C(N)=O)NC(=O)[C@H](CC(=O)O)NC(=O)[C@H](CC(=O)O)NC(=O)[C@H](CCSC)NC(=O)[C@H]([C@@H](C)CC)NC(=O)[C@H](CO)NC(=O)[C@H](CCCCN)NC1=O [Peptide 16] (Ac-FNMQCLRRMSEAGVDANLNQEQRWAKIKSIMDDC-NH2; disulfide 5-34) | 1 to 10 | –
